The results in this text go back to patent US20200289434A1, “RAPIDLY IMPROVING ENDOTHELIAL FUNCTION, REDUCING ARTERIAL STIFFNESS AND REVERSING CALCIFICATION OF BLOOD VESSELS BY ADMINISTERING VITAMIN K” (KAYDENCE PHARMA AS, priority 2019, published 2020).

Values joined by “and” are separate entries in the source; they are usually repeats but may differ in a detail not shown here. Equal values may be shown once.

Experiment [1] concerns matrix gla protein (MGP). Briefly: Clinical study: blood analysis of matrix gla protein carboxylation. The class given is in vivo, human. The following applies: kidney transplant patients, 360 ug/day, 8 weeks. The procedure:
Participants were enrolled in a clinical trial in which the effects of vitamin K2 were determined for patients who had recently undergone a kidney transplant. At the beginning of the study, patients were subjected to a non-invasive pulse wave velocity measurement to measure arterial stiffness/flexibility, as well as blood analysis. The study participants were then instructed to receive a specific daily dose of MenaQ7 vitamin K2 menaquinone-7 (360 ug/day) for a total of 8 weeks. At the end of 8 weeks, patients were again examined with a follow-up examination, a non-invasive pulse wave velocity measurement and blood analysis and drug treatment was discontinued.
As part of the blood analysis, carboxylated matrix gla protein (MGP) was measured as a direct measure of vitamin K2 activity. The carboxylated MGP inhibits calcification of blood vessels and Vitamin K2 stimulates carboxylation of MGP.

Experiment [2] relates to ApoE/LDLR−/− mice. Briefly: Example 2: MRI-based assessment of NO-dependent vasodilatation in BCA and LCA after acetylcholine. The class given is in vivo. The following applies: two months, 6-month old mice. As for the experimental part: Endpoint assays: Magnetic resonance imaging (MRI)-based assessment of nitric oxide (NO)-dependent vasodilatation in brachiocephalic (BCA) and left common carotid artery (LCA) after acetylcholine (Ach) administration—by MRI 9.4T scanner, total time of measurements: 114 h (1.5 h per animal), acetylcholine (Ach, 16.6 mg/kg b.w.)
Studies were performed on 4-month old female ApoE/LDLR−/− mice, the model initially described by Ishibashi S, Herz J, Maeda N, Goldstein J, Brown M. The two-receptor model of lipoprotein clearance: tests of the hypothesis in “knockout” mice lacking the low density lipoprotein receptor, apolipoprotein E, or both proteins. Proc Natl Acad Sci USA 1994; 10:4431-5., and extensively characterized in previous studies, [see Kostogrys R B, Franczyk-Zarow M, Gasior-Glogowska M, Kus E, Jasztal A, Wrobel T P, et al. Anti-atherosclerotic effects of pravastatin in brachiocephalic artery in comparison with en face aorta and aortic roots in ApoE/LDLR−/− mice. Pharmacol Reports 2017; 69:112-8. doi:10.1016/j.pharep.2016.09.014; Tyrankiewicz U, Skorka T, Orzylowska A, Jablonska M, Jasinski K, Jasztal A, et al. Comprehensive MRI for the detection of subtle alterations in diastolic cardiac function in apoE/LDLR−/− mice with advanced atherosclerosis. NMR Biomed 2016; 29:833-40. doi:10.1002/nbm.3524; Mateuszuk L, Jasztal A, Maslak E, Gasior-Glogowska M, Baranska M, Sitek B, et al. Antiatherosclerotic Effects of 1-Methylnicotinamide in Apolipoprotein E/Low-Density Lipoprotein Receptor-Deficient Mice: A Comparison with Nicotinic Acid. J Pharmacol Exp Ther 2016; 356:514-24. doi:10.1124/jpet.115.228643; Wrobel T P, Marzec K M, Chlopicki S, Maślak E, Jasztal A, Franczyk-Żarów M, et al., Effects of Low Carbohydrate High Protein (LCHP) diet on atherosclerotic plaque phenotype in ApoE/LDLR−/− mice: FT-IR and Raman imaging. […] End-diastolic volumes of BCA and LCA were analyzed using ImageJ software (1.46r NIH Bethesda, Md., USA) and scripts written in Matlab (MathWorks, Natick, Mass., USA) (FIG. 1A).

For experiment [3], the system named is ApoE/LDLR−/− mice. Briefly: Example 3 second part: nitrite and nitrate concentration in plasma. The format is in vivo. The following applies: eight weeks.
Experiment [4] deals with ApoE/LDLR−/− mice. Description: Example 3 second part: histological assessment of area and composition of atherosclerotic plaque in BCA. The class given is in vivo. The following applies: eight weeks. The text has this: For the determination of atherosclerotic plaque area and composition isolated brachiocephalic artery (BCA) was dissected, fixed in 4% buffered formalin, and embedded in paraffin. 5 μm-thick serial sections of BCA were collected from the proximal to distal part of the artery. Staining with Unna's orcein combined with Martius, Scarlet and Blue trichrome (OMSB) was applied on every tenth section (50 μm interval between each section) for quantitative analysis of atherosclerotic plaques. The areas of particular components of atherosclerotic plaque as well as artery lumen and wall were determined after Columbus-based software processing (FIG. 9) using specially-designed algorithm as described in Gajda M, Jasztal A, Banasik T, Jasek-Gajda E, Chlopicki S. Combined orcein and martius scarlet blue (OMSB) staining for qualitative and quantitative analyses of atherosclerotic plaques in brachiocephalic arteries in apoE/LDLR−/− mice. Histochem Cell Biol 2017. doi:10.1007/s00418-017-1538-8. The parameters analyzed include vessel wall area (VWA), internal vessel area (IVA=plaque area+lumen area), plaque area (expressed as percent of internal wall area: plaque/IWA), and lumen area (expressed as percent of internal wall area: lumen/IWA).

In experiment [5] the test system is macrophages in BCA atherosclerotic plaque. Description: Example 3 second part: immunohistochemical detection of macrophages (Mac-3) in atherosclerotic plaque in BCA. The class given is in vivo, mice. The settings on record: high dose (10 mg/kg b.w./day). As for the experimental part: For detection of macrophages in BCA, atherosclerotic plaque immunohistochemical staining was performed. After heat-induce epitope retrieval, with 10 mM sodium citrate buffer (pH 6), deparaffinised sections were blocked with 5% normal goat serum and 1% hydrogen peroxide. […] Next, sections were treated with biotinylated secondary antibody, followed by horseradish peroxidase-conjugated streptavidin. 3,3′-diaminobenzidine (DAB) as a chromogen was used for visualization of antibody-antigen interaction. Sections were counterstained with hematoxylin. Intensity of Mac-3 staining was estimated manually considering quantity and intensity of positive reactions. Final results are shown as a mean from two independent analysis.

Take `CC(C)=CCC/C(C)=C/CC/C(C)=C/CC/C(C)=C/CC/C(C)=C/CC/C(C)=C/CC/C(C)=C/CC1=C(C)C(=O)c2ccccc2C1=O` [MK-7, menaquinone-7]: the “mean reduction of levels of uncarboxylated MGP” value in experiment [1] turned out to be 55%. In addition, the “volume change of BCA after Ach injection” value in experiment [2] (high dose 10 mg/kg b.w./day) turned out to be 3.12%. Besides, the “volume change of LCA after Ach injection” value in experiment [2] (high dose 10 mg/kg b.w./day) is 4.45%; in experiment [2] (low dose 0.03 mg/kg b.w./day, listed as vitamin MK-7, 0.03 mg/kg/day), ~−3% and −3.92%. In addition, in experiment [3] (0.03 or 10 mg/kg b.w./day), the “concentration of NO3− in plasma” value is recorded as “did not change significantly”. In addition, the “increase in NO2− concentration in plasma” value is listed as around 42% in experiment [3] (high dose 10 mg/kg b.w./day) and “about 58%” in experiment [3] (low dose 0.03 mg/kg b.w./day). Further, the “plaque and lumen area expressed as percent of IWA” value in experiment [4] (either low or high dose) is “did not change”. For the same molecule, the “plaque size vs non-treated mice” value in experiment [4] (low (0.03) or high (10 mg/kg b.w./day) dose) is on record as “not different”. Besides, the “decrease in vessel wall area (VWA)” value in experiment [4] (low and high dose, 24-week-old mice) is recorded as “about 5%”. In addition, the “internal wall area (IWA)” value in experiment [4] (lower dose, not visible for entire vessel) is recorded as “decreased only in the middle part of the vessel”. In addition, in experiment [5], the “intensity of MAC-3 staining” value was found to be 139±29.
